Results published in PMC11396129, “Oxindole–benzothiazole hybrids as CDK2 inhibitors and anticancer agents: design, synthesis and biological evaluation” (BMC Chemistry, 2024).

How the values were obtained:
Assay type in all cases: cell-based, human
RPMI-8226 = assay: NCI 60 panel growth inhibition (SRB), leukemia; conditions: RPMI-8226, 10 μM
Description: (§1) Screening of cytotoxic activity against a panel of sixty human tumor cell lines The selected compounds by NCI were evaluated for their anticancer activity in a two- stage process. […] Then, the output from the single dose screen is reported as a mean graph. […] Assay protocol. […] For a typical screening experiment, cells are inoculated into 96 well microtiter plates in 100 µL at plating densities ranging from 5000 to 40,000 cells/well depending on the doubling time of individual cell lines. […] After 24 h, two plates of each cell line are fixed in situ with TCA, to represent a measurement of the cell population for each cell line at the time of drug addition (Tz). The experimental drugs are solubilized in dimethyl sulfoxide at 400-fold the desired final maximum test concentration and stored frozen prior to use. At the time of drug addition, an aliquot of frozen concentrate is thawed and diluted to twice the desired final maximum test concentration with complete medium containing 50 µg/mL gentamicin. Additional four, 10-fold or ½ log serial dilutions are made to provide a total of five drug concentrations plus control. […] For adherent cells, the assay is terminated by the addition of cold TCA. […] The supernatant is discarded, and the plates are washed five times with tap water and air dried. […] Using the seven absorbance measurements [time zero, (Tz), control growth, (C), and test growth in the presence of drug at the five concentration levels (Ti)], the percentage growth is calculated at each of the drug concentrations levels. Percentage growth inhibition is calculated as: [(Ti Tz)/(C–Tz)] x 100 for concentrations for which Ti>/=Tz and [(Ti-Tz)/Tz] x 100 for concentrations for which Ti < Tz. Three dose response parameters are calculated for each experimental agent. […] The drug concentration resulting in total growth inhibition (TGI) is calculated from Ti = Tz. […] Values are calculated for each of these three parameters if the level of activity is reached; however, if the effect is not reached or is exceeded, the value for that parameter is expressed as greater or less than the maximum or minimum concentration tested.

SR = assay: NCI 60 panel growth inhibition (SRB), leukemia; conditions: 10 μM
Description: as §1

HL-60(TB) = assay: NCI 60 panel growth inhibition (SRB), leukemia; conditions: HL-60(TB), 10 μM
Description: as §1

K-562 = assay: NCI 60 panel growth inhibition (SRB), leukemia; conditions: K-562, 10 μM
Description: as §1

MOLT-4 = assay: NCI 60 panel growth inhibition (SRB), leukemia; conditions: MOLT-4, 10 μM
Description: as §1

CCRF-CEM = assay: NCI 60 panel growth inhibition (SRB), leukemia; conditions: 10 μM
Description: as §1

SNB-19 = assay: NCI 60 panel growth inhibition (SRB), CNS cancer; conditions: SNB-19, 10 μM
Description: as §1

U251 = assay: NCI 60 panel growth inhibition (SRB), CNS cancer; conditions: U251, 10 μM
Description: as §1

SNB-75 = assay: NCI 60 panel growth inhibition (SRB), CNS cancer; conditions: SNB-75, 10 μM
Description: as §1

SF-539 = assay: NCI 60 panel growth inhibition (SRB), CNS cancer; conditions: SF-539, 10 μM
Description: as §1

SF-295 = assay: NCI 60 panel growth inhibition (SRB), CNS cancer; conditions: SF-295, 10 μM
Description: as §1

SF-268 = assay: NCI 60 panel growth inhibition (SRB), CNS cancer; conditions: SF-268, 10 μM
Description: as §1

M14 = assay: NCI 60 panel growth inhibition (SRB), melanoma; conditions: M14, 10 μM
Description: as §1

UACC-62 = assay: NCI 60 panel growth inhibition (SRB), melanoma; conditions: UACC-62, 10 μM
Description: as §1

MDA-MB-435 = assay: NCI 60 panel growth inhibition (SRB), melanoma; conditions: MDA-MB-435, 10 μM
Description: as §1

SK-MEL-28 = assay: NCI 60 panel growth inhibition (SRB), melanoma; conditions: SK-MEL-28, 10 μM
Description: as §1

SK-MEL-5 = assay: NCI 60 panel growth inhibition (SRB), melanoma; conditions: SK-MEL-5, 10 μM
Description: as §1

LOX IMVI = assay: NCI 60 panel growth inhibition (SRB), melanoma; conditions: 10 μM
Description: as §1

UACC-257 = assay: NCI 60 panel growth inhibition (SRB), melanoma; conditions: UACC-257, 10 μM
Description: as §1

SK-MEL-2 = assay: NCI 60 panel growth inhibition (SRB), melanoma; conditions: SK-MEL-2, 10 μM
Description: as §1

HT29 = assay: NCI 60 panel growth inhibition (SRB), colon cancer; conditions: HT29, 10 μM
In short: (§2)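 Cells were plated at 5000–40,000 cells/well by doubling time; after 24 h, time-zero plates were TCA-fixed. Compounds from DMSO stocks were tested at five concentrations (10-fold or ½ log dilutions) plus control. Adherent cells were TCA-fixed; percentage growth was calculated from Tz, control and test absorbances.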

OVCAR-4 = assay: NCI 60 panel growth inhibition (SRB), ovarian cancer; conditions: OVCAR-4, 10 μM
In short: as §2

OVCAR-5 = assay: as above; conditions: OVCAR-5, 10 μM
In short: as §2

OVCAR-3 = assay: as above; conditions: OVCAR-3, 10 μM
In short: as §2

IGROV1 = assay: as above; conditions: IGROV1, 10 μM
In short: as §2

SK-OV-3 = assay: as above; conditions: SK-OV-3, 10 μM
In short: as §2

MALME-3M = assay: NCI 60 panel growth inhibition (SRB), melanoma; conditions: 10 μM
Description: as §1

| Compound | GI% (RPMI-8226) | GI% (HL-60(TB)) | GI% (K-562) | GI% (MOLT-4) | GI% (CCRF-CEM) | GI% (SNB-19) | GI% (U251) | GI% (SNB-75) | GI% (SF-539) | GI% (SF-295) | GI% (SF-268) | GI% (M14) | GI% (UACC-62) | GI% (MDA-MB-435) | GI% (SK-MEL-28) | GI% (SK-MEL-5) | GI% (LOX IMVI) | GI% (UACC-257) | GI% (SK-MEL-2) | GI% (HT29) | further results |
| --- | --- | --- | --- | --- | --- | --- | --- | --- | --- | --- | --- | --- | --- | --- | --- | --- | --- | --- | --- | --- | --- |
| COc1cccc(-c2nc3ccccc3s2)c1OCC(=O)NN=C1C(=O)Nc2ccc(Cl)cc21 [Compound 9k, 2-(2-(Benzo[d]thiazol-2-yl)-6-methoxyphenoxy)-N′-(5-chloro-2-oxoindolin-3-ylidene)acetohydrazide] | 29.96% | 6.09% | 29.20% | 43.70% | 24.47% | – (GI% < 5%) | – (GI% < 5%) | – (GI% < 5%) | 30.36% | 38.31% | – (GI% < 5%) | – (GI% < 5%) | 32.61% | – (GI% < 5%) | – (GI% < 5%) | 23.55% | 13.16% | – (GI% < 5%) | 12.78% | 14.83% | GI% (SR): 17.83%; GI% (OVCAR-4): 13.16%; GI% (OVCAR-5): 8.99%; GI% (OVCAR-3): – (GI% < 5%); GI% (IGROV1): – (GI% < 5%); GI% (SK-OV-3): – (GI% < 5%) |
| COc1ccc(-c2nc3ccccc3s2)cc1OCC(=O)NN=C1C(=O)Nc2ccccc21 [Compound 9m, 2-(5-(Benzo[d]thiazol-2-yl)-2-methoxyphenoxy)-N′-(2-oxoindolin-3-ylidene) acetohydrazide] | 25.46% | – (GI% < 5%) | 11.23% | 23.70% | 40.05% | – (GI% < 5%) | 13.36% | – (GI% < 5%) | 10.76% | – (GI% < 5%) | – (GI% < 5%) | – (GI% < 5%) | – (GI% < 5%) | – (GI% < 5%) | – (GI% < 5%) | – (GI% < 5%) | 18.28% | – (GI% < 5%) | – (GI% < 5%) | – (GI% < 5%) | GI% (SR): 12.20%; GI% (MALME-3M): – (GI% < 5%); GI% (OVCAR-4): 16.50%; GI% (OVCAR-5): – (GI% < 5%); GI% (OVCAR-3): – (GI% < 5%); GI% (IGROV1): – (GI% < 5%) |
| COc1ccc(-c2nc3ccccc3s2)cc1OCC(=O)NN=C1C(=O)Nc2ccc(C)cc21 [Compound 9n, 2-(5-(Benzo[d]thiazol-2-yl)-2-methoxyphenoxy)-N′-(5-methyl-2-oxoindolin-3-ylidene)acetohydrazide] | 14.26% | – (GI% < 5%) | 6.70% | 13.07% | 16.11% | – (GI% < 5%) | – (GI% < 5%) | – (GI% < 5%) | 11.49% | – (GI% < 5%) | 5.27% | – (GI% < 5%) | 13.88% | – (GI% < 5%) | 6.91% | 7.31% | – (GI% < 5%) | – (GI% < 5%) | – (GI% < 5%) | – (GI% < 5%) | GI% (MALME-3M): 18.46%; GI% (OVCAR-5): 7.10%; GI% (OVCAR-3): – (GI% < 5%); GI% (IGROV1): – (GI% < 5%); GI% (SK-OV-3): – (GI% < 5%) |
| COc1ccc(-c2nc3ccccc3s2)cc1OCC(=O)NN=C1C(=O)Nc2ccc([N+](=O)[O-])cc21 [Compound 9p, 2-(5-(Benzo[d]thiazol-2-yl)-2-methoxyphenoxy)-N′-(5-nitro-2-oxoindolin-3-ylidene)acetohydrazide] | – (GI% < 5%) | – (GI% < 5%) | – (GI% < 5%) | – (GI% < 5%) | 9.28% | 86.59% | 78.07% | 120.44% | 65.68% | 89.39% | 53.94% | – (GI% < 5%) | 19.19% | – (GI% < 5%) | – (GI% < 5%) | 5.61% | 13.12% | – (GI% < 5%) | 115.65% | – (GI% < 5%) | GI% (SR): – (GI% < 5%); GI% (MALME-3M): 8.36%; GI% (OVCAR-4): 13.06%; GI% (OVCAR-5): – (GI% < 5%); GI% (OVCAR-3): – (GI% < 5%); GI% (IGROV1): 41.60% |
| COc1ccc(-c2nc3ccccc3s2)cc1OCC(=O)NN=C1C(=O)Nc2ccc(Cl)cc21 [Compound 9q, 2-(5-(Benzo[d]thiazol-2-yl)-2-methoxyphenoxy)-N′-(5-chloro-2-oxoindolin-3-ylidene)acetohydrazide] | 46.48% | – (GI% < 5%) | 50.00% | 71.36% | 81.35% | 63.00% | 63.50% | 15.62% | 34.10% | 23.77% | 27.89% | 23.59% | 12.95% | 37.37% | – (GI% < 5%) | 12.80% | 72.29% | – (GI% < 5%) | 56.54% | 6.74% | GI% (SR): 18.57%; GI% (MALME-3M): 26.21%; GI% (OVCAR-4): 25.24%; GI% (OVCAR-5): – (GI% < 5%); GI% (OVCAR-3): 31.89%; GI% (IGROV1): 16.12% |
| COc1ccc(-c2nc3ccccc3s2)cc1OCC(=O)NN=C1C(=O)Nc2ccc(Br)cc21 [Compound 9r, 2-(5-(Benzo[d]thiazol-2-yl)-2-methoxyphenoxy)-N′-(5-bromo-2-oxoindolin-3-ylidene)acetohydrazide] | 19.17% | – (GI% < 5%) | 24.52% | 13.12% | 42.87% | 48.19% | 30.21% | – (GI% < 5%) | 21.62% | – (GI% < 5%) | – (GI% < 5%) | 9.47% | – (GI% < 5%) | – (GI% < 5%) | – (GI% < 5%) | – (GI% < 5%) | 38.27% | – (GI% < 5%) | 17.63% | – (GI% < 5%) | GI% (SR): – (GI% < 5%); GI% (MALME-3M): 11.71%; GI% (OVCAR-4): – (GI% < 5%); GI% (OVCAR-5): – (GI% < 5%); GI% (OVCAR-3): – (GI% < 5%); GI% (IGROV1): – (GI% < 5%) |
